Measured values taken from patent US7087722B1, “Fibrin binding domain polypeptides and uses and methods of producing same” (Savient Pharmaceuticals, Inc., priority 1988, dated 2006).

Legend:
[1] = biological target: T1, guinea-pig liver transglutaminase (Sigma) (UniProt P08587); assay: Binding of 125I-r31 kD FBD to extracellular matrix (ECM) of endothelial cells in the presence of exogenous transglutaminase; type: biochemical; conditions: 0.3 μM 125I-r31 kD FBD; 3 mM CaCl2; 0.02 units/ml transglutaminase; 45 minutes
T1 construct: purchased Sigma; host or cells: guinea-pig liver
T1 sequence (P08587 2-690): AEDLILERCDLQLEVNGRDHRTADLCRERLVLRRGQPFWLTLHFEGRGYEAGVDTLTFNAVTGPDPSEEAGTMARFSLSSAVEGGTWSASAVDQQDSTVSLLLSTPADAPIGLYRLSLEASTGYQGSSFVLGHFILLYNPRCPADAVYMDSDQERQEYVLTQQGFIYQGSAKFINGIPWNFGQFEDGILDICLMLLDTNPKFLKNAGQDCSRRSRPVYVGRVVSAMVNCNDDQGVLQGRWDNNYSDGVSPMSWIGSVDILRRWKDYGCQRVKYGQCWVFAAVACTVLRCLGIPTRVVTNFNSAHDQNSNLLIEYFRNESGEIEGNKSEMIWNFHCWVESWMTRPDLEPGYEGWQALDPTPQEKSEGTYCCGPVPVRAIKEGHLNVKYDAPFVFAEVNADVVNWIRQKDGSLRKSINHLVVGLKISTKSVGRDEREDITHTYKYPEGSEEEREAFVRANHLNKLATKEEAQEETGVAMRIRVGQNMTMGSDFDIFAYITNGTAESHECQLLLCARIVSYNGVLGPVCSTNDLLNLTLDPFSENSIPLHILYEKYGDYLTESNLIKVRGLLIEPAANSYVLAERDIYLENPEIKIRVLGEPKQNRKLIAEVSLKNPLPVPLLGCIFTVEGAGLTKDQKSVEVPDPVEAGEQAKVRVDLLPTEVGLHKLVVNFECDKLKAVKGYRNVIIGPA
Experimental: FIG. 51. Binding of ^125I-r31 kD FBD to ECM in the presence of various constituents
0.3 μM of ^125I-r31 kD FBD was incubated with extracellular matrix of endothelial cells (ECM) as described by Eld r et al. (20) in a 37° C. CO2-incubator in the presence of saline, 3 mM CaCl2 and 0.02 units/ml of guinea-pig liver transglutaminase (TG) and other constituents as indicated in the figure. The control was done in the absence of transglutaminase.
The reactions were terminated after 45 minutes by washing five times with PBS. Plates were extracted with a solution of 0.5% SDS and aliquots of the extracted material were measured in a gamma counter.
The binding was now further characterized by examination of the binding of 0.3 μM ^125I-r31 kD FBD to ECM in the presence and absence of exogenous transglutaminase; additionally the binding in the presence of transglutaminase was examined in the presence of each of heparin, fibronectin or spermidine.

[2] = test system: clotting of citrated healthy human plasma by thrombin; assay: Plasma Thrombin Time (TT), clotting of citrated healthy human plasma; type: biochemical; conditions: 1 mM spermidine; for "TT" Values (%): no addition: 100
Experimental: The effect of the r31 kD polypeptide on clotting of whole blood was measured using the clinical laboratory parameter defined as Thrombin-Time. In this reaction aliquots of 100 μl citrated healthy human plasma were mixed with 100 μl PBS and either the transglutaminase inhibitor spermidine, or with reduced-carboxyamidated p31 kD or reoxidized-refolded r31 kD. 200 μl thrombin solution was added to each aliquot while continuously mixing. The time from the addition of the thrombin to the formation of clot was measured, and is expressed as “TT” in seconds (Table B).

`NCCCCNCCCN` [spermidine] was tested, and the “effect on binding of r31 kD FBD to ECM in the presence of transglutaminase” value [1] was “inhibits the binding”, the “"TT" Values (\)” value ([2]; thrombin conc. 1.25 (μ/ml)) was 105 and the “"TT" Values” ([2]; thrombin conc. 1.25 (μ/ml), no addition: 55.4) was 114 s. The “"TT" Values (%)” value ([2]; thrombin conc. 1.25 (μ/ml)) was 205%, the “"TT" Values (\)” value ([2]; thrombin conc. 2.5 (μ/ml)) was 72 and the “"TT" Values” ([2]; thrombin conc. 2.5 (μ/ml), no addition: 25.5) was 44 s. For the same compound, the “"TT" Values (%)” value ([2]; thrombin conc. 2.5 (μ/ml)) was 172%.
